Assay results taken from patent US20080103164A1, “USEFUL COMPOUNDS FOR HPV INFECTION” (priority 2004, published 2008).

tested on: episomal HPV-16 DNA in W12-20850 cells; assay: W-12 cellular assay: episomal HPV-16 DNA quantified by hybrid capture in W12-20850 cells; type: cell-based, HPV16; settings: Human papillomavirus 16, 96 h, four days incubation, inhibition of episomal HPV-16 DNA relative to untreated control
Procedure: Compounds of the current invention are believed useful in the treatment and/or prophylaxis of conditions and diseases associated with HPV infection. Activity mediated through HPV was determined using the following W-12 cellular assay. The […] cell line used contains HPV16 DNA and was derived from a low-grade cervical dysplasia tissue by Margaret Stanley and subsequently clonally selected by Paul Lambert (University of Wisconsin). One of these clones, […]-20850, contains 1000 copies of episomal HPV16 DNA and was used in the cell-based assay. […]-20850 cells were routinely cultured with a gamma-irradiated (6000 rads) feeder layer of 3T3 cells. Assays, however, were run in the absence of a 3T3 feeder layer. […]-20850 and 3T3 cells were routinely split when they were sub-confluent. […]-20850 were grown in […] Medium which is constituted of 25% DMEM (Gibco BRL, Cat # 12430-047), 75% F12 Media (Gibco BRL, Cat # 11765-021) and 2.5% FBS. The additives include […] Adenine (Sigma, Cat # A-9795), […] Hydrocortisone (Calbiochem, Cat # 386698), […] Bovine Insulin (Sigma, Cat # 1-1882), 8.4 ng/ml cholera toxin (Fluka, Cat # 26694) and 10 ng/ml EGF (Invitrogen, Cat # 13247-051). 3T3 cells were grown in DMEM containing 10% FBS. Cell lines were incubated at 37° C., in the presence of 5% CO2. For the assay, […]-20850 cells were seeded into a 96 well plate-containing compound. Plates were incubated at 37° C. in the presence of 5% CO2, for four days. On the fourth day, cells were lysed and the amount of episomal HPV-16 DNA was quantified using a non-radioactive hybrid capture technique with HPV-16 specific capture and detection probes. The percent inhibition relative to untreated control cells was then determined. The hybrid capture assay is run in a 96 well plate format. Hybridization plates (Nunc Maxisorb Cat # 450320) were coated with a mixture of capture probe and ReactiBind solution for at least 4 hours and then washed with 0.2×SSC, 0.05% Tween-20 (SSCT) prior to blocking with 150 μl/well of 0.2 N NaOH, 1% Igepal, 10 mg/ml hsDNA for 6-8 hours. The hybridization was carried out by mixing 27 μl of lysed cells with 45 μl of denatured detection probe in 6M guanidine isothiocyanate. To prevent evaporation, 50 μl of mineral oil was added to each well. The plate was then heated to 90° C. for 6.5 minutes and the hybridization continued at 42° C. overnight. Assay plates were washed 6 times with SSC/T. Anti-digoxigenin HRP-conjugated Ab (Boehringer Mannheim 1207733, 1:5000) was incubated in the wells for 30 min at room temperature and washed with PBS/0.05% Tween-20. SuperSignal LBA substrate (Pierce Cat # 37070) was added, and chemiluminescence was measured using Wallac 1420 Victor plate reader.

| IC50 [µM] | Structure (SMILES) |
| --- | --- |
| 4 | c1cncc(-c2ccnc(N3CCc4c([nH]c5ccccc45)C3c3ccc4c(c3)CCO4)n2)c1 (stereo not drawn) [Example 37, 1-(2,3-dihydro-1-benzofuran-5-yl)-2-[4-(3-pyridinyl)-2-pyrimidinyl]-2,3,4,9-tetrahydro-1H-β-carboline] |
| 3 | c1ccc2c3c([nH]c2c1)C(c1ccc2c(c1)CCO2)N(c1nccc(-n2ccnc2)n1)CC3 (stereo not drawn) [Example 38, 1-(2,3-dihydro-1-benzofuran-5-yl)-2-[4-(1H-imidazol-1-yl)-2-pyrimidinyl]-2,3,4,9-tetrahydro-1H-β-carboline] |
| 2 | Cc1cn(-c2ccnc(N3CCc4c([nH]c5ccccc45)C3c3ccc4c(c3)CCO4)n2)cn1 (stereo not drawn) [Example 39, 1-(2,3-dihydro-1-benzofuran-5-yl)-2-[4-(4-methyl-1H-imidazol-1-yl)-2-pyrimidinyl]-2,3,4,9-tetrahydro-1H-β-carboline] |
